Columns and labels:
Rotala indica = experiment: Herbicidal activity against Rotala indica assessed as growth inhibition in paddy condition under greenhouse at 5 g/ha measured after 18 days by preemergence activity assay; type: functional; settings: pre-emergence, 432 h, read-out: GI
[1] = tested on: Schoenoplectiella juncoides; experiment: Herbicidal activity against Schoenoplectiella juncoides assessed as growth inhibition in paddy condition under greenhouse at 5 g/ha measured after 18 days by preemergence activity assay; type: functional; settings: pre-emergence, 432 h, read-out: GI
Pontederia vaginalis [2] = experiment: Herbicidal activity against Monochoria vaginalis assessed as growth inhibition in paddy condition under greenhouse at 5 g/ha measured after 18 days by preemergence activity assay; type: functional; settings: pre-emergence, 432 h, read-out: GI
[3] = Phytotoxicity against Oryza sativa (rice) assessed as growth inhibition under greenhouse at 5 g/ha measured after 18 days by preemergence activity assay; type: organism-based; settings: in vivo, read-out: GI
Echinochloa crus-galli [4] = experiment: Herbicidal activity against Echinochloa crus-galli (barnyard grass) assessed as growth inhibition in paddy condition under greenhouse at 5 g/ha measured after 18 days by preemergence activity assay; type: functional; settings: pre-emergence, 432 h, read-out: GI
Pontederia vaginalis [5] = experiment: Herbicidal activity against Monochoria vaginalis assessed as weed control in transplanted rice field at 1500 g/ha treated after 3 days transplanting; type: functional
Sagittaria pygmaea [6] = experiment: Herbicidal activity against Sagittaria pygmaea assessed as weed control in transplanted rice field at 1500 g/ha treated after 7 days transplanting; type: functional
unidentified [7] = experiment: Herbicidal activity against broadleaf weed assessed as weed control in transplanted rice field at 1500 g/ha treated after 7 days transplanting; type: functional
Oryza sativa [8] = experiment: Effect on Oryza sativa (rice) plant growth in transplanted Oryza sativa field assessed as plant height at 1500 g/ha treated after 7 days transplanting; type: organism-based; settings: in vivo, other, 168 h
Echinochloa crus-galli [9] = experiment: Herbicidal activity against Echinochloa crus-galli (barnyard grass) assessed as weed control in transplanted rice field at 1500 g/ha treated after 3 days transplanting; type: functional
[10] = tested on: Schoenoplectiella juncoides; experiment: Herbicidal activity against Schoenoplectiella juncoides assessed as weed control in transplanted rice field at 1500 g/ha treated after 3 days transplanting; type: functional
[11] = tested on: Schoenoplectiella juncoides; experiment: Herbicidal activity against Schoenoplectiella juncoides assessed as weed control in transplanted rice field at 1500 g/ha treated after 7 days transplanting; type: functional
Pontederia vaginalis [12] = experiment: Herbicidal activity against Monochoria vaginalis assessed as weed control in transplanted rice field at 1500 g/ha treated after 7 days transplanting; type: functional
Cyperus serotinus [13] = experiment: Herbicidal activity against Cyperus serotinus assessed as weed control in transplanted rice field at 1500 g/ha treated after 7 days transplanting; type: functional
Echinochloa crus-galli [14] = experiment: Herbicidal activity against Echinochloa crus-galli (barnyard grass) assessed as weed control in transplanted rice field at 1500 g/ha treated after 7 days transplanting; type: functional
Oryza sativa [15] = experiment: Effect on Oryza sativa (rice) plant growth in transplanted Oryza sativa field assessed as plant height at 1500 g/ha treated after 3 days transplanting; type: organism-based; settings: in vivo, other, 72 h
Cyperus serotinus [16] = experiment: Herbicidal activity against Cyperus serotinus assessed as weed control in transplanted rice field at 1500 g/ha treated after 3 days transplanting; type: functional
unidentified [17] = experiment: Herbicidal activity against broadleaf weed assessed as weed control in transplanted rice field at 1500 g/ha treated after 3 days transplanting; type: functional
Sagittaria pygmaea [18] = experiment: Herbicidal activity against Sagittaria pygmaea assessed as weed control in transplanted rice field at 1500 g/ha treated after 3 days transplanting; type: functional
Oryza sativa [19] = experiment: Effect on Oryza sativa (rice) plant growth in transplanted Oryza sativa field assessed as number of tillers at 1500 g/ha treated after 3 days transplanting; type: organism-based; settings: in vivo, other, 72 h
Oryza sativa [20] = experiment: Effect on Oryza sativa (rice) plant growth in transplanted Oryza sativa field assessed as number of tillers at 1500 g/ha treated after 7 days transplanting; type: organism-based; settings: in vivo, other, 168 h

Row | Compound | inhibition of growth at 5 g/ha (Rotala indica) [%] | inhibition of growth at 5 g/ha [1] [%] | inhibition of growth at 5 g/ha (Pontederia vaginalis [2]) [%] | inhibition at 432 h [3] [%] | inhibition of growth at 5 g/ha (Echinochloa crus-galli [4]) [%] | also measured
1 | CCOC(=O)c1c(CC)nn(C)c1S(=O)(=O)NC(=O)Nc1nc(OC)cc(OC)n1 | > 90 | 40 | 70 | < 5 | 20 | 
2 | CCOC(=O)c1c(Cl)nn(C)c1S(=O)(=O)NC(=O)Nc1nc(OC)cc(OC)n1 | > 90 | 70 | > 90 | < 5 | 20 | 
3 | CCOC(=O)c1c(C(F)(F)F)nn(C)c1S(=O)(=O)NC(=O)Nc1nc(OC)cc(OC)n1 | 20 | < 5 | < 5 | < 5 | < 5 | 
4 | CCOC(=O)c1c([N+](=O)[O-])nn(C)c1S(=O)(=O)NC(=O)Nc1nc(OC)cc(OC)n1 | 70 | 5 | 20 | 5 | < 5 | 
5 | CCOC(=O)c1c(OC)nn(C)c1S(=O)(=O)NC(=O)Nc1nc(OC)cc(OC)n1 | > 90 | 70 | > 90 | < 5 | 40 | 
6 | CCOC(=O)c1nn(C)c(S(=O)(=O)NC(=O)Nc2nc(OC)cc(OC)n2)c1C(=O)OCC | < 5 | < 5 | < 5 | < 5 | < 5 | 
7 | CCCOC(=O)c1cnn(C)c1S(=O)(=O)NC(=O)Nc1nc(OC)cc(OC)n1 | > 90 | 70 | > 90 | < 5 | < 5 | 
8 | CCCCOC(=O)c1cnn(C)c1S(=O)(=O)NC(=O)Nc1nc(OC)cc(OC)n1 | < 5 | < 5 | < 5 | < 5 | < 5 | 
9 | COc1cc(OC)nc(NC(=O)NS(=O)(=O)c2c(C(=O)N(C)C)cnn2C)n1 | < 5 | < 5 | < 5 | < 5 | < 5 | 
10 | COc1cc(OC)nc(NC(=O)NS(=O)(=O)c2c(S(=O)(=O)N(C)C)cnn2C)n1 | > 90 | > 90 | 70 | > 90 | 40 | 
11 | COc1cc(OC)nc(NC(=O)NS(=O)(=O)c2c(C#N)cnn2C)n1 | < 5 | < 5 | < 5 | < 5 | < 5 | 
12 | COc1cc(OC)nc(NC(=O)NS(=O)(=O)c2c([N+](=O)[O-])cnn2C)n1 | < 5 | < 5 | < 5 | < 5 | < 5 | 
13 | CCC(=O)c1cnn(C)c1S(=O)(=O)NC(=O)Nc1nc(OC)cc(OC)n1 | 40 | 20 | 40 | < 5 | 5 | 
14 | CCOC(=O)c1cn[nH]c1S(=O)(=O)NC(=O)Nc1nc(OC)cc(OC)n1 | 70 | 70 | 70 | 5 | 5 | 
15 | CCOC(=O)c1cnn(CC)c1S(=O)(=O)NC(=O)Nc1nc(OC)cc(OC)n1 | > 90 | 70 | > 90 | 5 | 5 | 
16 | CCCCn1ncc(C(=O)OCC)c1S(=O)(=O)NC(=O)Nc1nc(OC)cc(OC)n1 | < 5 | < 5 | < 5 | < 5 | < 5 | 
17 | CCOC(=O)c1cnn(-c2ccccc2)c1S(=O)(=O)NC(=O)Nc1nc(OC)cc(OC)n1 | 70 | 20 | 40 | < 5 | < 5 | 
18 | CCOC(=O)c1cnn(C)c1S(=O)(=O)NC(=O)Nc1nc(C)cc(C)n1 | 40 | < 5 | < 5 | 5 | < 5 | 
19 | CCOC(=O)c1cnn(C)c1S(=O)(=O)NC(=O)Nc1nc(C)cc(OC)n1 | > 90 | 70 | 70 | < 5 | 5 | 
20 | CCOC(=O)c1cnn(C)c1S(=O)(=O)NC(=O)Nc1nc(OC)nc(OC)n1 | < 5 | < 5 | < 5 | 5 | < 5 | 
21 | COc1cc(OC)nc(NC(=O)NS(=O)(=O)c2c(C)cnn2C)n1 | 70 | 20 | 40 | < 5 | 20 | 
22 | COc1cc(OC)nc(NC(=O)NS(=O)(=O)c2c(Br)cnn2C)n1 | 40 | 40 | 70 | < 5 | < 5 | 
23 | COc1cc(OC)nc(NC(=O)NS(=O)(=O)c2c(C(=O)O)cnn2C)n1 | < 5 | < 5 | < 5 | < 5 | < 5 | 
24 | COC(=O)c1cnn(C)c1S(=O)(=O)NC(=O)Nc1nc(OC)cc(OC)n1 | > 90 | 70 | > 90 | < 5 | 40 | 
25 | CCOC(=O)c1c(C)nn(C)c1S(=O)(=O)NC(=O)Nc1nc(OC)cc(OC)n1 | > 90 | > 90 | > 90 | < 5 | 70 | 
26 | CCCCOCN(C(=O)CCl)c1c(CC)cccc1CC [BUTACHLOR] |  |  |  |  |  | Activity (Pontederia vaginalis [5]): 90%; Activity (Sagittaria pygmaea [6]): 20%; Activity (unidentified [7]): 83%; Activity (Oryza sativa [8]): 103%; Activity (Echinochloa crus-galli [9]): 98%; Activity [10]: 100%; Activity [11]: 88%; Activity (Pontederia vaginalis [12]): 43%; Activity (Cyperus serotinus [13]): 70%; Activity (Echinochloa crus-galli [14]): 100%; Activity (Oryza sativa [15]): 106%; Activity (Cyperus serotinus [16]): 63%; Activity (unidentified [17]): 100%; Activity (Sagittaria pygmaea [18]): 27%; Activity (Oryza sativa [19]): 99%; Activity (Oryza sativa [20]): 93%

— ChEMBL document CHEMBL3046449, “Selective Herbicidal Activities of Ethyl 5-(4, 6-Dimethoxypyrimidin-2-ylcarbamoylsulfamoyl)-1-methylpyrazole-4-carboxylate and Its Related Compounds” (J Pestic Sci, 1990)
